Marks after values point to notes of the source that are not given here. Peptide text beside a SMILES is read from it.
Columns and labels:
[1] = Suppression of transition to β-form crystal by habit modifier in α-form crystal slurry (Example 1); format: physicochemical; details: 0.45 g added to 9 g α-form crystals in 30 mL water; 25° C., 24 hr; microscopic observation
Experimental: α-Form crystals of reduced glutathione (9 g) and water (30 mL) were mixed in a glass bottle. […] The glass bottle was shaken in a tray dryer set to 25° C. for 24 hr.

[2] = not told
Description: The crystals precipitated during stirring are observed under a microscope, and it is judged whether the crystals are all α-form crystals or development of β-form crystal or transition to β-form crystal has occurred. Since the shape of α-form crystal, which is a large columnar crystal, is markedly different from that of β-form crystal, which is a small needle crystal, they can easily be distinguished by microscopic observation. […] The permeability can be expressed by permeability (T %) 430 nm=100×10^−A (A=Abs: 430 nm, 1 cm). When β-form crystal having low solubility is present, the permeability of the solution is lowered since the crystals left undissolved are detected as turbidity. Since the development of β-form crystal causes crystallization and a lower concentration of reduced glutathione in the solution in the slurry than that of a solution containing α-form crystal alone, the kind of the coexisting crystals can also be distinguished by measuring the concentration of reduced glutathione in the mother liquor from which the coexisting crystals have been removed. The concentration of reduced glutathione in the mother liquor is measured by removing the coexisting crystals by filtration and the like, diluting same with mobile phase to a given concentration, maintaining with stirring for a sufficient time, and measuring the concentration under the following HPLC conditions.
After 3 hr, the crystals (each 1 g) were dissolved in water (10 mL) at 25° C., the permeability at 430 nm was measured, and the turbidity was confirmed to determine the presence or absence of transition to β-form crystal.

[3] = Amount of habit modifier needed to suppress β-form crystal development in aqueous reduced glutathione solution (Example 4); format: physicochemical; details: 10° C.
Description: The results of the elapsed time and changes in the concentration of reduced glutathione due to the presence or absence of a habit modifier are shown in Table 3.

[4] = Concentration crystallization of reduced glutathione with habit modifier, production method (1) (Example 5); format: physicochemical; details: 2.5 g added to 50 g reduced glutathione; concentrate cooled to 25° C., stirred 24 hr; microscopic observation
Experimental: (§1) Reduced glutathione (50 g) and water (500 mL) were added to a 1 L beaker. […] The prepared solution (filtrate) was concentrated by an evaporator such that the concentration of reduced glutathione was not less than the saturation solubility of α-form crystal to perform concentration crystallization of reduced glutathione.

[5] = Concentration crystallization of reduced glutathione with 10 wt % habit modifier, production method (2) (Example 6); format: physicochemical; details: 10 wt % added; concentrate cooled to 25° C., stirred 24 hr; microscopic observation
Experimental: as §1

[6] = at 10° C., in water
Description: The crystal of reduced glutathione includes two kinds of crystal polymorphs of α-form crystal and β-form crystal (non-patent document 1). […] Therefore, the β-form crystal having low solubility is associated with problems that it is difficult to process as a raw material and cannot be handled with ease.

C[C@H](N)C(=O)N[C@@H](CS)C(=O)O [AlaCys, L-alanyl-L-cysteine] (H-Ala-Cys-OH)
transition of α-form crystal to β-form crystal [1]: suppression of the transition
permeability (%) [2]: 99%

O=C(O)[C@H]1CCCN1 [D-Pro, D-proline]
transition of α-form crystal to β-form crystal [1]: suppression of the transition

C[C@H](N)C(=O)O [L-Ala, L-alanine]
transition of α-form crystal to β-form crystal [1]: suppression of the transition
development of β-form crystal ([3]; 0.01 wt %-1 wt % added, 15 hr): suppressed development of β-form crystal
concentration (g/L) of reduced glutathione ([3]; amount added 0.01%, elapsed time 0 h): 94.2* g/L
concentration (g/L) of reduced glutathione ([3]; amount added 0.01%, elapsed time 15 h): 89.2* g/L
concentration (g/L) of reduced glutathione ([3]; amount added 0.1%, elapsed time 0 h): 94.2* g/L
concentration (g/L) of reduced glutathione ([3]; amount added 0.1%, elapsed time 15 h): 91.2* g/L
concentration (g/L) of reduced glutathione ([3]; amount added 1.0%, elapsed time 0 h): 94.2* g/L
concentration (g/L) of reduced glutathione ([3]; amount added 1.0%, elapsed time 15 h): 92.6* g/L
crystal form produced [4]: produced α-form crystal alone
crystal form produced [5]: produced α-form crystal alone
permeability (%) [2]: 100%

N[C@@H](CS)C(=O)O [L-Cys, L-cysteine]
transition of α-form crystal to β-form crystal [1]: suppression of the transition
crystal form produced [4]: produced α-form crystal alone
crystal form produced [5]: produced α-form crystal alone
permeability (%) [2]: 100%

Cl.N[C@@H](Cc1c[nH]cn1)C(=O)O [L-His, L-histidine hydrochloride, reference compound]
permeability (%) [2]: 95%

N[C@@H](Cc1ccccc1)C(=O)O [L-Phe, L-phenylalanine]
transition of α-form crystal to β-form crystal [1]: suppression of the transition
permeability (%) [2]: 100%

N[C@@H](Cc1c[nH]c2ccccc12)C(=O)O [L-Trp, L-tryptophan]
transition of α-form crystal to β-form crystal [1]: suppression of the transition
permeability (%) [2]: 99%

N[C@@H](CCC(=O)N[C@@H](CS)C(=O)NCC(=O)O)C(=O)O [α-form crystal, reduced glutathione]
saturated solubility [6]: 89 mg/mL

N[C@@H](CCC(=O)N[C@@H](CS)C(=O)NCC(=O)O)C(=O)O [β-form crystal, reduced glutathione]
saturated solubility [6]: 30 mg/mL
